Source: publication PMC7226106, “Population Pharmacokinetics/Pharmacodynamics of Dabrafenib Plus Trametinib in Patients with BRAF-Mutated Metastatic Melanoma” (Cancers, 2020)
Where two headings read alike, the source gives them in different places.

Tests used:
[1] = set-up: method as in earlier work; details: preclinical data; cited from earlier work
[2] = Population pharmacokinetic model of trametinib (NONMEM) from plasma concentrations; format: in vivo, human (patients); details: for Vd/F: human, plasma, oral, read-out: V2/F, apparent central volume of distribution of TRA
Excerpt: Seventy-three outpatients treated with DAB were enrolled from July 2015 to June 2017 in this observational multicentric study including three hospitals of the Assistance Publique—Hôpitaux de Paris (Cochin, Henri Mondor, and Avicenne). To be eligible, patients needed to meet the following criteria: a minimal age of 18 years, metastatic BRAF^V600-mutated solid tumors, treatment with DAB or CombiDT with at least one available DAB concentration measurement.
DAB, dabrafenib-d9 (internal standard, IS), and TRA were purchased from LGC Standards (Molsheim, France). A custom synthesis was developed by Shanghai Medicilon (Shanghai, China) for OHD. The plasma concentrations were assayed using a validated high-performance liquid chromatography-tandem mass spectrometry (HPLC-MS/MS) (ATSQ Quantum Ultra®mass spectrometer, ThermoFisher, Les Ulis, France). Chromatographic separation was performed on Accucore® C18 (2.1 × 50 mm; 2.6 µm) analytical column (ThermoFisher Scientific, Les Ulis, France) associated with a guard column packed with the same bonded phase. Two hundred microliters (µL) aliquot of plasma (calibration standard, internal quality control or patient sample) was mixed with 20 µL of IS solution. Then 600 µL acetonitrile with 1% (v/v) formic acid was added. Samples were mixed and centrifuged, and the supernatant was evaporated and recovered with 200 µL of mobile phase: water/methanol (70:30%, v/v) with formic acid (0.1% v/v). Ten microliters of this mixture were injected into the HPLC-MS/MS system. The calibration standards ranged from 10 to 2000 ng/mL for DAB and OHD and from 5 to 50 ng/mL for TRA.
Blood samples were collected in heparinized tubes during the treatment course, and the exact sample time was recorded. Plasma was separated by centrifugation (3000 rpm, 5 min), and stored at −20 °C until analysis.
The non-linear mixed effects modeling program NONMEM v7.4.1 [34] with the Perl-Speaks NONMEM (PsN) Toolkit v4.8.0 [35] was used to build DAB/OHD and TRA models. Pirana v2.9.2 was used to assist in model development. […] Molar units were used for DAB/OHD analyses. Plasma samples with concentrations below the lower limit of quantification of the assay, non-reliable time information about blood sampling, or without dose information were excluded from the analysis.
A stepwise strategy was used to identify the base models that best fitted DAB/OHD and TRA pharmacokinetic data. Different structural models such as one or two compartments, with linear absorption with or without lag time, were compared. DAB and OHD were modeled simultaneously testing multi-compartment models for both compounds. We hypothesized that DAB was cleared by complete oxidation to OHD, since it is not eliminated as unchanged molecule in urine and accounts for less than 22% in feces. Moreover, the first-order absorption rate constant (ka) of DAB was fixed to 1.8 h^−1 according to a previously published value to allow an adequate estimate of all pharmacokinetic parameters. Since DAB and TRA are administered orally, the pharmacokinetic parameters represent apparent values. Exponential errors following a log-normal distribution were assumed for the description of IIV of all the pharmacokinetic parameters. Inter-occasion variability (IOV) was tested in both DAB/OHD and TRA models to assess differences in individual parameters across study occasions. Additive, proportional, and mixed error models were compared to depict the residual unexplained variability (RUV) for both drugs and metabolite. The correlation between DAB and OHD data was tested using the L2 item in NONMEM. […]

[3] = tested on: BRAF^V600-mutated MM patients; experiment: Safety: adverse events and dose-limiting toxicities (DLT) under CombiDT; details: human, in vivo
Procedure: Patients initiated DAB at the recommended daily dose of 150 mg twice daily. In patients treated with CombiDT, TRA was started at 2 mg once daily. Reduced starting doses were allowed at physician discretion based on comorbidities and patients’ general condition. All AE were graded using the National Cancer Institute Common Toxicity Criteria v4.0. DAB treatment was continued until disease progression, unacceptable toxicity, or unfitness to receive it.

[4] = tested on: BRAF^V600-mutated metastatic melanoma; experiment: Survival (PFS, OS) and Cox exposure-survival analysis under CombiDT; format: in vivo, human (patients); details: univariate Cox model, n = 30
Procedure: (§1) Pharmacokinetic/pharmacodynamic analysis was conducted in BRAF^V600-mutated MM patients concomitantly treated with CombiDT. Regarding safety, the onset of DLT was considered as the clinical endpoint. A DLT was defined as any toxicity leading to dose reduction or temporary or permanent discontinuation of treatment. Regarding survival, the primary end point was progression free survival (PFS), the time from DAB and TRA treatment initiation to documented progression event (either clinical or radiological progression) or death from any cause. The secondary end-point was overall survival (OS), defined as the time from DAB and TRA treatment initiation to death from any cause. Radiographic evidence of progression was defined according to modified Response Evaluation Criteria in Solid Tumor (RECIST) v1.1 [41].
Multivariate Cox models according to a stepwise procedure were tested including all variables which were significant at 5% level in the univariate analyses.

[5] = Model-estimated systemic exposure (AUC) in BRAF^V600-mutated MM patients treated with CombiDT; details: human, plasma, oral
Procedure: as §1
Systemic exposures to DAB, OHD, and TRA (AUCDAB, AUCOHD, and AUCTRA, respectively) were calculated with classic equations, composite DAB and OHD AUC (AUCDAB+OHD) as previously explained and AUCOHD/DAB as the ratio of AUCOHD over AUCDAB. Univariate Fisher and Wilcoxon models were performed to identify which parameters could contribute to the onset of DLT. The following variables were tested: sex, age at treatment initiation, BMI, Eastern Cooperative Oncology Group Performance Status (ECOG PS: grade 0-1 vs ≥2), lactate dehydrogenase (LDH) level (<1.5N vs. ≥1.5N), AUCDAB, AUDOHD, AUCDAB+OHD, and AUCTRA.
Multivariate Cox models according to a stepwise procedure were tested including all variables which were significant at 5% level in the univariate analyses. All the pharmacokinetic/pharmacodynamic analyses were performed using R program v3.6.1 with RStudio v1.1.383 (http://www.r-project.org).

[6] = bootstrap median (n = 500 samples)

CC(C)c1nc(-c2cccc(NS(=O)(=O)c3c(F)cccc3F)c2F)c(-c2ccnc(N)n2)s1 [desmethyl-dabrafenib]
passage of the intact blood brain barrier [1]: may cross intact blood brain barrier

CC(=O)Nc1cccc(-n2c(=O)n(C3CC3)c(=O)c3c(Nc4ccc(I)cc4F)n(C)c(=O)c(C)c32)c1 [TRA, trametinib]
CL/F, apparent clearance of TRA [2, 6]: 5.82 L/h
IIV CL/F, interindividual variability (coefficient of variation) [2, 6]: 28.6%
IIV Q, interindividual variability (coefficient of variation) [2, 6]: 80.1%
RUV, residual unexplained variability (additive error) [2, 6]: 4.10 ng/mL
Tlag, lag time [2, 6]: 0.728 h
ka, first order absorption rate constant [2, 6]: 1.04 h⁻¹
IIV CL/F, interindividual variability (coefficient of variation) ([2]; final TRA model): 29.6%
IIV Q, interindividual variability (coefficient of variation) ([2]; final TRA model): 80.2%
RUV, residual unexplained variability (additive error) ([2]; final TRA model): 4.14 ng/mL
Tlag, lag time ([2]; final TRA model): 0.709 h
ka, first order absorption rate constant ([2]; final TRA model): 0.913 h⁻¹
CL/F, apparent clearance of TRA ([2]; final TRA model, n = 60): 5.83 L/h
Vd/F [2, 6]: 65.1 L
Vd/F ([2]; final TRA model): 61.9 L
median time to onset of drug-related DLT [3]: 104 days
patients in whom the drug dose was reduced [3]: 23%
patients in whom the drug was discontinued permanently [3]: 10%
patients who experienced a drug-related DLT [3]: 33%
Risk of Death, HR (CI95%) for AUCM3 [4]: 1.37 (0.94–1.98)
Risk of Progression, HR (CI95%) for AUCM3 [4]: 1.31 (0.93–1.83)
AUC ([5]; AUCTRA, median (range), patients with TRA-related DLT (n = 17), last AUC before onset of DLT): 268 ng·h/mL
AUC ([5]; AUCTRA, median (range), patients without TRA-related DLT (n = 35), average AUC over treatment course): 268 ng·h/mL
AUC ([5]; median AUCM3 (mean AUC during the first three months of treatment), 30 MM patients of the exposure-survival analysis): 292 ng·h/mL
